# Assay results from ChEMBL document CHEMBL4257449, “New N-(2-phenyl-4-oxo-1,3-thiazolidin-3-yl)-1,2-benzothiazole-3-carboxamides and acetamides as antimicrobial agents” (2017).
# How the values were obtained:
# Staphylococcus aureus [1] = assay: Antibacterial activity against Staphylococcus aureus ATCC 6538 after 24 hrs by microdilution method; assay type: functional; conditions: ATCC 6538, 24 h
# Listeria monocytogenes [2] = assay: Antibacterial activity against Listeria monocytogenes NCTC 7973 after 24 hrs by microdilution method; assay type: functional; conditions: NCTC 7973, 24 h
# Salmonella typhimurium [3] = assay: Antibacterial activity against Salmonella typhimurium ATCC 13311 after 24 hrs by microdilution method; assay type: functional, Salmonella enterica subsp. enterica serovar Typhimurium; conditions: Salmonella enterica, ATCC 13311, 24 h
# Listeria monocytogenes [4] = assay: Bactericidal activity against Listeria monocytogenes NCTC 7973 incubated for 24 hrs followed by serial sub-cultivation and measured after 24 hrs by microdilution method; assay type: functional
# Staphylococcus aureus [5] = assay: Bactericidal activity against Staphylococcus aureus ATCC 6538 incubated for 24 hrs followed by serial sub-cultivation and measured after 24 hrs by microdilution method; assay type: functional
# Talaromyces funiculosus [6] = assay: Antifungal activity against Penicillium funiculosum ATCC 36839 after 72 hrs by serial dilution method; assay type: functional; conditions: ATCC 36839, 72 h
# Aspergillus ochraceus [7] = assay: Antifungal activity against Aspergillus ochraceus ATCC 12066 after 72 hrs by serial dilution method; assay type: functional; conditions: ATCC 12066, 72 h
# Trichoderma viride [8] = assay: Fungicidal activity against Trichoderma viride IAM 5061 incubated for 72 hrs followed by serial sub-cultivation for 72 hrs and measured after 72 hrs by serial dilution method; assay type: functional
# Trichoderma viride [9] = assay: Antifungal activity against Trichoderma viride IAM 5061 after 72 hrs by serial dilution method; assay type: functional; conditions: IAM 5061, 72 h
# Aspergillus ochraceus [10] = assay: Fungicidal activity against Aspergillus ochraceus ATCC 12066 incubated for 72 hrs followed by serial sub-cultivation for 72 hrs and measured after 72 hrs by serial dilution method; assay type: functional
# Aspergillus fumigatus [11] = assay: Fungicidal activity against Aspergillus fumigatus incubated for 72 hrs followed by serial sub-cultivation for 72 hrs and measured after 72 hrs by serial dilution method; assay type: functional
# Aspergillus niger [12] = assay: Fungicidal activity against Aspergillus niger ATCC 6275 incubated for 72 hrs followed by serial sub-cultivation for 72 hrs and measured after 72 hrs by serial dilution method; assay type: functional
# Salmonella typhimurium [13] = assay: Bactericidal activity against Salmonella typhimurium ATCC 13311 incubated for 24 hrs followed by serial sub-cultivation and measured after 24 hrs by microdilution method; assay type: functional, Salmonella enterica subsp. enterica serovar Typhimurium
# Enterobacter cloacae [14] = assay: Antibacterial activity against Enterobacter cloacae after 24 hrs by microdilution method; assay type: functional
# Escherichia coli [15] = assay: Bactericidal activity against Escherichia coli ATCC 35210 incubated for 24 hrs followed by serial sub-cultivation and measured after 24 hrs by microdilution method; assay type: functional
# Penicillium ochrochloron [16] = assay: Antifungal activity against Penicillium ochrochloron ATCC 9112 after 72 hrs by serial dilution method; assay type: functional; conditions: ATCC 9112, 72 h
# Aspergillus versicolor [17] = assay: Antifungal activity against Aspergillus versicolor ATCC 11730 after 72 hrs by serial dilution method; assay type: functional; conditions: ATCC 11730, 72 h
# Aspergillus niger [18] = assay: Antifungal activity against Aspergillus niger ATCC 6275 after 72 hrs by serial dilution method; assay type: functional; conditions: ATCC 6275, 72 h
# Escherichia coli [19] = assay: Antibacterial activity against Escherichia coli ATCC 35210 after 24 hrs by microdilution method; assay type: functional; conditions: ATCC 35210, 24 h
# Pseudomonas aeruginosa [20] = assay: Bactericidal activity against Pseudomonas aeruginosa ATCC 27853 incubated for 24 hrs followed by serial sub-cultivation and measured after 24 hrs by microdilution method; assay type: functional
# Micrococcus flavus [21] = assay: Bactericidal activity against Micrococcus flavus ATCC 10240 incubated for 24 hrs followed by serial sub-cultivation and measured after 24 hrs by microdilution method; assay type: functional
# Bacillus cereus [22] = assay: Bactericidal activity against Bacillus cereus incubated for 24 hrs followed by serial sub-cultivation and measured after 24 hrs by microdilution method; assay type: functional
# Enterobacter cloacae [23] = assay: Bactericidal activity against Enterobacter cloacae incubated for 24 hrs followed by serial sub-cultivation and measured after 24 hrs by microdilution method; assay type: functional
# Aspergillus versicolor [24] = assay: Fungicidal activity against Aspergillus versicolor ATCC 11730 incubated for 72 hrs followed by serial sub-cultivation for 72 hrs and measured after 72 hrs by serial dilution method; assay type: functional
# Penicillium ochrochloron [25] = assay: Fungicidal activity against Penicillium ochrochloron ATCC 9112 incubated for 72 hrs followed by serial sub-cultivation for 72 hrs and measured after 72 hrs by serial dilution method; assay type: functional
# Aspergillus fumigatus [26] = assay: Antifungal activity against Aspergillus fumigatus after 72 hrs by serial dilution method; assay type: functional
# Micrococcus flavus [27] = assay: Antibacterial activity against Micrococcus flavus ATCC 10240 after 24 hrs by microdilution method; assay type: functional; conditions: ATCC 10240, 24 h
# Talaromyces funiculosus [28] = assay: Fungicidal activity against Penicillium funiculosum ATCC 36839 incubated for 72 hrs followed by serial sub-cultivation for 72 hrs and measured after 72 hrs by serial dilution method; assay type: functional
# Pseudomonas aeruginosa [29] = assay: Antibacterial activity against Pseudomonas aeruginosa ATCC 27853 after 24 hrs by microdilution method; assay type: functional; conditions: ATCC 27853, 24 h
# Candida albicans [30] = assay: Fungicidal activity against Candida albicans incubated for 72 hrs followed by serial sub-cultivation for 72 hrs and measured after 72 hrs by serial dilution method; assay type: functional
# Bacillus cereus [31] = assay: Antibacterial activity against Bacillus cereus after 24 hrs by microdilution method; assay type: functional
# Candida albicans [32] = assay: Antifungal activity against Candida albicans after 72 hrs by serial dilution method; assay type: functional
MIC (Staphylococcus aureus [1]),MIC (Listeria monocytogenes [2]),MIC (Salmonella typhimurium [3]),MIC (Talaromyces funiculosus [6]),MIC (Aspergillus ochraceus [7]),MIC (Trichoderma viride [9]),MIC (Enterobacter cloacae [14]),MIC (Penicillium ochrochloron [16]),MIC (Aspergillus versicolor [17]),MIC (Aspergillus niger [18]),MIC (Escherichia coli [19]),SMILES,MBC99.5 (Listeria monocytogenes [4]),MBC99.5 (Staphylococcus aureus [5]),MFC99.5 (Trichoderma viride [8]),MFC99.5 (Aspergillus ochraceus [10]),MFC99.5 (Aspergillus fumigatus [11]),MFC99.5 (Aspergillus niger [12]),MBC99.5 (Salmonella typhimurium [13]),MBC99.5 (Escherichia coli [15]),MBC99.5 (Pseudomonas aeruginosa [20]),further results
58 µM,232 µM,116 µM,464 µM,232 µM,116 µM,116 µM,232 µM,464 µM,464 µM,116 µM,O=C(N/N=C/c1c(Cl)cccc1Cl)c1nsc2ccccc12,46.4 ×10⁻² umol/ml,17.6 ×10⁻² umol/ml,46.4 ×10⁻² umol/ml,46.4 ×10⁻² umol/ml,46.4 ×10⁻² umol/ml,58 ×10⁻² umol/ml,23.2 ×10⁻² umol/ml,23.2 ×10⁻² umol/ml,46.4 ×10⁻² umol/ml,MBC99.5 (Micrococcus flavus [21]): 23.2 ×10⁻² umol/ml; MBC99.5 (Bacillus cereus [22]): 23.2 ×10⁻² umol/ml; MBC99.5 (Enterobacter cloacae [23]): 23.2 ×10⁻² umol/ml; MFC99.5 (Aspergillus versicolor [24]): 58 ×10⁻² umol/ml; MFC99.5 (Penicillium ochrochloron [25]): 46.4 ×10⁻² umol/ml; MIC (Aspergillus fumigatus [26]): 232 µM; MIC (Micrococcus flavus [27]): 116 µM; MFC99.5 (Talaromyces funiculosus [28]): 58 ×10⁻² umol/ml; MIC (Pseudomonas aeruginosa [29]): 232 µM; MFC99.5 (Candida albicans [30]): 46.4 ×10⁻² umol/ml; MIC (Bacillus cereus [31]): 116 µM; MIC (Candida albicans [32]): 232 µM
205 µM,589 µM,768 µM,102 µM,102 µM,25.6 µM,789 µM,102 µM,102 µM,102 µM,589 µM,O=C(NN1C(=O)CSC1c1ccc(Cl)cc1)c1nsc2ccccc12 (stereo not drawn),76.8 ×10⁻² umol/ml,38.4 ×10⁻² umol/ml,5.12 ×10⁻² umol/ml,20.5 ×10⁻² umol/ml,38.4 ×10⁻² umol/ml,20.5 ×10⁻² umol/ml,115.2 ×10⁻² umol/ml,76.8 ×10⁻² umol/ml,76.8 ×10⁻² umol/ml,MBC99.5 (Micrococcus flavus [21]): 76.8 ×10⁻² umol/ml; MBC99.5 (Bacillus cereus [22]): 38.4 ×10⁻² umol/ml; MBC99.5 (Enterobacter cloacae [23]): 115.2 ×10⁻² umol/ml; MFC99.5 (Aspergillus versicolor [24]): 20.5 ×10⁻² umol/ml; MFC99.5 (Penicillium ochrochloron [25]): 20.5 ×10⁻² umol/ml; MIC (Aspergillus fumigatus [26]): 205 µM; MIC (Micrococcus flavus [27]): 384 µM; MFC99.5 (Talaromyces funiculosus [28]): 20.5 ×10⁻² umol/ml; MIC (Pseudomonas aeruginosa [29]): 205 µM; MFC99.5 (Candida albicans [30]): 20.5 ×10⁻² umol/ml; MIC (Bacillus cereus [31]): 205 µM; MIC (Candida albicans [32]): 102 µM
214 µM,214 µM,214 µM,107 µM,80 µM,27 µM,214 µM,54 µM,214 µM,107 µM,214 µM,O=C(NN1C(=O)CSC1c1ccccc1F)c1nsc2ccccc12 (stereo not drawn),40.2 ×10⁻² umol/ml,40.2 ×10⁻² umol/ml,5.4 ×10⁻² umol/ml,21.4 ×10⁻² umol/ml,21.4 ×10⁻² umol/ml,21.4 ×10⁻² umol/ml,40.2 ×10⁻² umol/ml,40.2 ×10⁻² umol/ml,40.2 ×10⁻² umol/ml,MBC99.5 (Micrococcus flavus [21]): 40.2 ×10⁻² umol/ml; MBC99.5 (Bacillus cereus [22]): 40.2 ×10⁻² umol/ml; MBC99.5 (Enterobacter cloacae [23]): 40.2 ×10⁻² umol/ml; MFC99.5 (Aspergillus versicolor [24]): 40.2 ×10⁻² umol/ml; MFC99.5 (Penicillium ochrochloron [25]): 10.7 ×10⁻² umol/ml; MIC (Aspergillus fumigatus [26]): 107 µM; MIC (Micrococcus flavus [27]): 295 µM; MFC99.5 (Talaromyces funiculosus [28]): 21.4 ×10⁻² umol/ml; MIC (Pseudomonas aeruginosa [29]): 214 µM; MFC99.5 (Candida albicans [30]): 21.4 ×10⁻² umol/ml; MIC (Bacillus cereus [31]): 214 µM; MIC (Candida albicans [32]): 107 µM
198 µM,744 µM,372 µM,144 µM,100 µM,100 µM,570 µM,100 µM,100 µM,198 µM,273 µM,O=C(Cc1nsc2ccccc12)NN1C(=O)CSC1c1ccc(Cl)cc1 (stereo not drawn),111.6 ×10⁻² umol/ml,37.2 ×10⁻² umol/ml,19.8 ×10⁻² umol/ml,19.8 ×10⁻² umol/ml,74.4 ×10⁻² umol/ml,37.2 ×10⁻² umol/ml,74.4 ×10⁻² umol/ml,37.2 ×10⁻² umol/ml,74.4 ×10⁻² umol/ml,MBC99.5 (Micrococcus flavus [21]): 37.2 ×10⁻² umol/ml; MBC99.5 (Bacillus cereus [22]): 19.8 ×10⁻² umol/ml; MBC99.5 (Enterobacter cloacae [23]): 74.4 ×10⁻² umol/ml; MFC99.5 (Aspergillus versicolor [24]): 19.8 ×10⁻² umol/ml; MFC99.5 (Penicillium ochrochloron [25]): 19.8 ×10⁻² umol/ml; MIC (Aspergillus fumigatus [26]): 372 µM; MIC (Micrococcus flavus [27]): 273 µM; MFC99.5 (Talaromyces funiculosus [28]): 19.8 ×10⁻² umol/ml; MIC (Pseudomonas aeruginosa [29]): 372 µM; MFC99.5 (Candida albicans [30]): 37.2 ×10⁻² umol/ml; MIC (Bacillus cereus [31]): 100 µM; MIC (Candida albicans [32]): 198 µM
